Measurements as given in patent US9089139B2, “Agri-horticultural pest control compositions comprising 4-(3-butynyl)aminopyrimidine derivatives” (SDS Biotech K. K., priority 2011, dated 2015).

Test system: Sphaerotheca fuliginea
Test: Test 1: control effect against powdery mildew on cucumber (control index)
Type: in vivo, Sphaerotheca fuliginea on cucumber (variety: SAGAMI HANJIRO)
Conditions: Podosphaera fuliginea, 336 h; individual active compound, test concentration 10 ppm; read-out: Control index
Text: The expected efficacies of the combinations of the individual active compounds can be determined using Colby's formula, which is described below [Colby, S. R. “Calculating synergistic and antagonistic responses of herbicide combinations,” Weeds 15, 20-22 (1967)]: Colby's formula: E=A+B−(A×B/100) E is the predicted efficacy (control index) with reference to the untreated control when using the mixture of the active compound X at the concentration x and the active compound Y at the concentration y; A is the efficacy (control index) with respect to the untreated control when using the active compound X at the concentration x; B is the efficacy (control index) with respect to the untreated control when using the active compound […] at the concentration y.
Potted young seedlings of cucumber (variety: SAGAMI HANJIRO; in two-leaf stage) were sprayed with invention compounds formulated in accordance with Preparations and the existing antimicrobial active compounds listed in Table 3 (all compounds are identified by associated letters of the alphabet) after they were diluted with water to predetermined concentrations so that they would serve as active compounds; a spray gun was used to provide a spray rate of 15 ml per pot. After air-drying, the seedlings were inoculated with conida of Sphaerotheca fuliginea by spraying a suspension of the conida. Thereafter, the seedlings were cultivated for 14 days in a greenhouse and the percentage of diseased area was investigated for each leaf; based on the result of this investigation, the control index was calculated using the following formula: Control index={(percentage of diseased area on the untreated control−percentage of diseased area on treated sample)/percentage of diseased area on the untreated control}×100

Row | SMILES | pest or weed control at 10 ppm [%]
1 | CC1COC(Cn2cncn2)(c2ccc(Oc3ccc(Cl)cc3)cc2Cl)O1 (stereo not drawn) [Ha: Difenoconazole, difenoconazole] | 27

Same assay, conditions: Podosphaera fuliginea, 336 h; individual active compound, test concentration 100 ppm

Row | SMILES | pest or weed control at 100 ppm [%]
2 | COC(=O)N(OC)c1ccccc1COc1ccn(-c2ccc(Cl)cc2)n1 [Ed: Pyraclostrobin, pyraclostrobin] | 22

Test system: not given
Test: not given
Conditions: not given

Row | SMILES | melting point [°C]
3 | C(#Cc1csc(-c2ccsc2)n1)CCNc1ncnc2sccc12 [compound 80] | 55 to 56
4 | C(#Cc1cccnc1)CCNc1ncnc2sccc12 [compound 56] | 138 to 140
5 | Fc1cc(C#CCCNc2ncnc3sccc23)cc(F)c1F [compound 43] | 158 to 159
6 | FC(F)(F)c1ccccc1Oc1nc(C#CCCNc2ncnc3ccccc23)cs1 [compound 218] | 159 to 161
7 | COc1ccc(C#CCCNc2ncnc3sccc23)cc1OC [compound 24] | 182 to 184
8 | O=[N+]([O-])c1ccc(C#CCCNc2ncnc3sccc23)cc1 [compound 40] | 184 to 185
9 | C(#Cc1csc(-c2cccnc2)n1)CCNc1ncnc2sccc12 [compound 81] | 175 to 177
10 | C(#Cc1ccccc1)CCNc1ncnc2[nH]cnc12 [compound 378] | 207 to 208
11 | CC(=O)OCc1nc(C#CCCNc2ncnc3sccc23)cs1 [compound 73] | 128 to 129
12 | Cc1nc(C#CCCNc2ncnc3sccc23)cs1 [compound 66] | 160 to 161
13 | Cc1scnc1C#CCCNc1ncnc2sccc12 [compound 65] | 148 to 150
14 | FC(F)(F)c1ccc(Oc2nc(C#CCCNc3ncnc4ccccc34)cs2)cc1 [compound 220] | 137 to 139
15 | Clc1ncnc(NCCC#Cc2ccccc2)c1Cl [compound 357] | 122 to 123
16 | OCc1nc(C#CCCNc2ncnc3sccc23)cs1 [compound 70] | 193
17 | COc1ccc(Oc2nc(C#CCCNc3ncnc4ccccc34)cs2)cc1 [compound 217] | 150 to 152
18 | N#Cc1ccc(Oc2nc(C#CCCNc3ncnc4ccccc34)cs2)cc1 [compound 223] | 55 to 57
19 | C(#Cc1ccccc1)CC(Nc1ncnc2ccccc12)c1ccccc1 (stereo not drawn) [Compound No. 301, 4-[(1,4-diphenyl-3-butynyl)amino]quinazoline] | 141 to 143
20 | C(#Cc1cncs1)CCNc1ncnc2sccc12 [Compound No. 61] | 156 to 158
21 | C(#Cc1csc(-c2ccccc2)n1)CCNc1ncnc2sccc12 [Compound No. 76, 4-[4-(2-Phenylthiazol-4-yl)-3-butynylamino]thieno[2,3-d]pyrimidine] | 134 to 136
22 | Clc1cc(NCCC#Cc2ccccc2)ncn1 [compound 358] | 118 to 120

Row | SMILES | melting point [°C]
23 | C(#Cc1csc(-c2ccco2)n1)CCNc1ncnc2sccc12 [compound 77] | 53 to 55
24 | C(#Cc1csc(-c2ccoc2)n1)CCNc1ncnc2sccc12 [compound 78] | 140 to 142
25 | CC(C)[Si](C#CCCNc1ncnc2sccc12)(C(C)C)C(C)C | 196 to 198
26 | N#Cc1cccc(Oc2nc(C#CCCNc3ncnc4ccccc34)cs2)c1 [compound 222] | 137 to 139
27 | O=[N+]([O-])c1cccc(C#CCCNc2ncnc3sccc23)c1 [compound 39] | 171 to 172
28 | FC(F)(F)c1ccccc1C#CCC(Nc1ncnc2ccccc12)c1ccccc1 (stereo not drawn) [compound 302] | 150 to 152
29 | C(#Cc1ccc(OC2CCCCO2)cc1)CCNc1ncnc2ccccc12 (stereo not drawn) [compound 156] | 163 to 165
30 | Clc1ncnc(NCCC#Cc2ccccc2)c1Cc1ccccc1 [compound 372] | 157 to 158
31 | FC(F)(F)c1cccc(C#CCCNc2ncnc3sccc23)c1 [compound 26] | 123 to 125
32 | C(#Cc1nccs1)CCNc1ncnc2sccc12 [compound 62] | 128 to 129
33 | C(#Cc1ccncc1)CCNc1ncnc2sccc12 [compound 57] | 140 to 141
34 | Fc1cccc(F)c1C#CCCNc1ncnc2sccc12 [compound 42] | 179 to 181
35 | Cc1cccc(C#CCCNc2ncnc3sccc23)c1 [compound 18] | 120 to 123
36 | FC(F)(F)c1cc(C#CCCNc2ncnc3sccc23)cc(C(F)(F)F)c1 [compound 28] | 163 to 166
37 | CC(C)(C)[Si](C)(C)C#CCCNc1ncnc2sccc12 | 190 to 192
38 | C(#Cc1cscn1)CCNc1ncnc2sccc12 [compound 63] | 174
39 | Cc1cc(C)nc(C#CCCNc2ncnc3sccc23)n1 [compound 59] | 112 to 113
40 | CC(CC#Cc1cscn1)Nc1ncnc2ccccc12 (stereo not drawn) [compound 291] | 142 to 145
41 | COC(=O)c1cccc(C#CCCNc2ncnc3sccc23)c1 [compound 30] | 163 to 166
42 | FC(F)(F)c1cccc(Oc2nc(C#CCCNc3ncnc4ccccc34)cs2)c1 [compound 219] | 106 to 108

Results, then the compound that gave them:

Row | melting point [°C] | SMILES
43 | 121 to 123 | COCc1ccccc1C#CCCNc1ncnc2ccc(I)cc12 [compound 322]
44 | 137 to 138 | CCOC(=O)c1ccc(C#CCCNc2ncnc3ccccc23)cc1 [compound 129]
45 | 120 to 122 | C(#Cc1ccccc1)CCNc1ncnc2ccccc12 [compound 96]
46 | 134 to 136 | Fc1cccc(Oc2nc(C#CCCNc3ncnc4ccccc34)cs2)c1 [compound 225]
47 | 163 to 164 | N#Cc1c(F)cccc1C#CCCNc1ncnc2ccccc12 [compound 165]
48 | 113 to 115 | OCc1cccc(C#CCCNc2ncnc3ccccc23)c1 [compound 131]
49 | 113 to 114 | CCOC(=O)c1cnc(C#CCCNc2ncnc3ccccc23)s1 [compound 213]
50 | 134 to 139 | FC(F)(F)c1ccc(C#CCCNc2ncnc3ccccc23)cn1 [compound 198]
51 | 147 to 148 | Clc1ccc(C#CCCNc2ncnc3ccccc23)cc1Cl [compound 175]
52 | 139 | C=C(C#CCCNc1ncnc2ccccc12)CO [compound 92]
53 | 121 to 125 | COCc1cc(F)c(F)cc1C#CCCNc1ncnc2ccccc12 [compound 146]
54 | 77 to 79 | COc1cccc(Oc2nc(C#CCCNc3ncnc4ccccc34)cs2)c1 [compound 216]
55 | 153 to 155 | Clc1cccc(Cl)c1C#CCCNc1ncnc2ccccc12 [compound 174]
56 | 161 to 162 | COCc1ccccc1C#CCCNc1ncnc2c(Cl)cc(Cl)cc12 [compound 338]
57 | 176 to 177 | Clc1ccc(Cl)c(C#CCCNc2ncnc3ccccc23)c1 [compound 173]
58 | 135 to 147 | OCc1cc(C#CCCNc2ncnc3ccccc23)co1 [compound 209]
59 | 159 to 160 | C(#Cc1ccc2ccccc2c1)CCNc1ncnc2ccccc12 [compound 183]
60 | 177 to 178 | Fc1ccc(C#CCCNc2ncnc3sccc23)c(F)c1 [compound 41]

Row | melting point [°C] | SMILES
61 | 141 to 142 | CSc1cccc(C#CCCNc2ncnc3ccccc23)c1 [compound 116]
62 | 119 to 120 | CCOc1ccccc1C#CCCNc1ncnc2ccccc12 [compound 118]
63 | 183 to 187 | OC(c1ccccc1C#CCCNc1ncnc2ccccc12)C(F)(F)F (stereo not drawn) [compound 138]
64 | 147 to 149 | COc1ccc(Cl)cc1C#CCCNc1ncnc2ccccc12 [compound 179]
65 | 161 to 162 | Fc1ccc(C#CCCNc2ncnc3ccccc23)cc1F [compound 166]
66 | 175 to 176 | Clc1cccc(C#CCCNc2ncnc3ccccc23)c1Cl [compound 171]
67 | 182 to 186 | OCc1cnccc1C#CCCNc1ncnc2ccccc12 [compound 201]
68 | 139 to 140 | CCOC(=O)c1sc(C#CCCNc2ncnc3ccccc23)nc1C [compound 214]
69 | 144 to 145 | FC(F)(F)c1ccc(Cl)c(C#CCCNc2ncnc3ccccc23)c1 [compound 176]
70 | 153 to 154 | FC(F)(F)c1ccccc1C#CCCNc1ncnc2cc(Cl)ccc12 [compound 308]
71 | 198 to 199 | Fc1cc(Cl)ccc1C#CCCNc1ncnc2ccccc12 [compound 164]
72 | 168 to 170 | Clc1ncccc1C#CCCNc1ncnc2ccccc12 [compound 195]
73 | 145 to 150 | Fc1cncc(C#CCCNc2ncnc3ccccc23)c1 [compound 193]
74 | 69 to 71 | OCc1ccc(C#CCCNc2ncnc3ccccc23)cc1 [compound 132]
75 | 183 to 185 | OCc1ccc(C#CCCNc2ncnc3ccccc23)cn1 [compound 202]
76 | 164 to 165 | CS(=O)(=O)c1ccc(C#CCCNc2ncnc3ccccc23)cc1 [compound 120]
77 | 182 to 183 | Clc1ccc(C#CCCNc2ncnc3ccccc23)c(Cl)c1 [compound 172]
78 | 92 to 94 | C=C(C)CCc1ccccc1C#CCCNc1ncnc2ccccc12 [compound 105]
